Results published in PubChem BioAssay (NCI).
Several values for one entry are separate records, joined by “and”; a condition that tells them apart may be missing. Equal entries are not always repeated.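 1) Cells in 96-well plates. 2) Compound, 48 h, 5 concentrations. 3) Linear interpolation between surrounding doses. 4) Unreached endpoint = highest concentration. At the GI50, growth is halved. The concentration for full growth arrest is given as TGI.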

Experiments:
Assay in all cases: growth of human tumour cells (NCI), 48 h
A498 renal = system: A498 renal
SK-MEL-5 melanoma = system: SK-MEL-5 melanoma
LOX IMVI melanoma = system: LOX IMVI melanoma
OVCAR-3 ovarian = system: OVCAR-3 ovarian
SNB-19 CNS = system: SNB-19 CNS
SW-620 colon = system: SW-620 colon
OVCAR-5 ovarian = system: OVCAR-5 ovarian
BT-549 breast = system: BT-549 breast
UACC-257 melanoma = system: UACC-257 melanoma
K-562 leukemia = system: K-562 leukemia

| SMILES | TGI (A498 renal) | GI50 (SK-MEL-5 melanoma) [µM] | TGI (SK-MEL-5 melanoma) [µM] | GI50 (LOX IMVI melanoma) [µM] | TGI (LOX IMVI melanoma) [µM] | GI50 (OVCAR-3 ovarian) | TGI (OVCAR-3 ovarian) [µM] | GI50 (SNB-19 CNS) | TGI (SNB-19 CNS) [µM] | GI50 (SW-620 colon) | TGI (SW-620 colon) | GI50 (OVCAR-5 ovarian) | TGI (OVCAR-5 ovarian) | GI50 (BT-549 breast) [µM] | TGI (BT-549 breast) [µM] | GI50 (A498 renal) [µM] | GI50 (UACC-257 melanoma) [µM] | TGI (UACC-257 melanoma) [µM] | GI50 (K-562 leukemia) [µM] | TGI (K-562 leukemia) [µM] |
| --- | --- | --- | --- | --- | --- | --- | --- | --- | --- | --- | --- | --- | --- | --- | --- | --- | --- | --- | --- | --- |
| CN1CCN(CCCN2c3ccccc3Sc3ccc(Cl)cc32)CC1 | 5.82 µM and 31.6 µM | 48.5 | 62 | 4.75 | 11.6 | 5.94 µM and 55.2 µM | 12.8 | 7.05 µM and 60.7 µM | 14.3 | 5.72 µM and 41.8 µM | 12 µM and 62.5 µM | 7.09 µM and 43.1 µM | 14 µM and 62.9 µM | 6.56 | 13.4 |  |  |  |  |  |
| CCNCCNc1cc(-c2ccc(C(F)(F)F)cc2)c(C#N)c2nc3cc(Cl)c(Cl)cc3n12 | 3.6 µM | 1.67 | 3.04 | 0.543 | 1.88 | 1.66 µM | 3.13 | 1.88 µM | 3.65 | 0.306 µM | 1.14 µM | 2.03 µM | 3.68 µM |  |  | 2 | 1.9 | 3.39 | 0.183 | 0.365 |
| O=C1C(c2ccccc2)=C(c2ccccc2)C(c2ccc(Sc3ccc(C4=C(c5ccccc5)C(=O)C(c5ccccc5)=C4c4ccccc4)cc3)cc2)=C1c1ccccc1 | > 100 µM |  | > 100 |  | > 100 |  | > 100 |  | > 100 |  | > 100 µM |  | > 100 µM |  |  |  |  | > 100 |  | > 100 |
| COc1ccc2c(c1)[n+]([O-])c(/C(C)=N/NC(=O)c1ccccc1O)c(C)[n+]2[O-] |  |  | > 100 |  | > 100 |  | > 100 |  | > 100 |  | > 100 µM |  | > 100 µM |  |  |  |  | > 100 |  | > 100 |
| COc1cc(O)c2c(c1)C(=O)C1=C(C2=O)C(O)C[C@@](C)(O)C1 (some centres undefined) | 3.29 µM |  |  |  | 1.68 |  | 5.67 |  | 14.1 |  | 2.53 µM |  | 22.2 µM |  |  |  |  | 1.24 |  | 2.46 |
| Cc1ccc(S(=O)(=O)OCCOCCOCCOCCOCCOS(=O)(=O)c2ccc(C)cc2)cc1 | > 100 µM |  | 65 |  | > 100 |  | > 100 |  | > 100 |  | > 100 µM |  | > 100 µM |  |  |  |  | 77.8 |  | > 100 |
| CC(=O)OCC1OC(n2ncc(=O)[nH]c2=O)C(OC(C)=O)C1OC(C)=O (centres undefined) |  |  | > 100 |  | > 100 |  | > 100 |  |  |  | > 100 µM |  | > 100 µM |  |  |  |  |  |  | > 100 |
| COc1cccc(C2SCc3nc4ccccc4n32)c1 (centres undefined) | > 100 µM |  | 65.7 |  | > 100 |  | > 100 |  | > 100 |  | > 100 µM |  | > 100 µM |  |  |  |  | > 100 |  | > 100 |
| Cc1ccsc1-c1ccc2c(c1)COC2(CCCN(C)C)c1ccc(F)cc1 (centres undefined) |  | 1.78 | 3.2 | 1.64 | 3.04 | 2.64 µM | 9.02 | 2.77 µM | 10.3 | 1.78 µM | 3.75 µM | 3.81 µM | 15 µM | 4.97 | 18.6 |  | 1.94 | 3.98 | 2.46 | 8.05 |
| Cc1ccc(C2=Nc3ccccc3S(=O)C(c3ccc4c(c3)OCO4)C2)cc1 (centres undefined) | 51.7 µM |  | 29.2 |  | 29.8 |  | 69.4 |  | > 100 |  | 34.5 µM |  |  |  |  |  |  | 88.4 |  | 98.8 |
| O=C1C(=O)N(c2ccc(Cl)cc2)C(=O)C(=Nc2cccc3c(=O)[nH][nH]c(=O)c23)C1c1nc2ccccc2o1 (centres undefined) | > 100 µM |  | > 100 |  | > 100 |  | > 100 |  | > 100 |  | > 100 µM |  | > 100 µM |  |  |  |  | > 100 |  | > 100 |
| CCCCCCCCCCOC(=O)NCCC | > 100 µM |  | 52.9 |  | 36.3 |  | > 100 |  | > 100 |  | > 100 µM |  | 93.9 µM |  |  |  |  | 92.8 |  | > 100 |
| O=C(O)c1c2c(cc3c(=O)cc(-c4ccccc4)oc13)CCCC2 | > 100 µM |  | > 100 |  | > 100 |  | > 100 |  | > 100 |  | > 100 µM |  | > 100 µM |  |  |  |  | > 100 |  | > 100 |
| CC[PH+](CC)CC.CC[PH+](CC)CC.[Au] |  | 3.5 | 17.5 | 8.67 | 24.2 | 18.2 µM | 33.2 | 13.4 µM | 26.4 | 5.13 µM | 15.6 µM | 25.8 µM | 41.5 µM |  |  |  | 11.4 | 24.4 | 5.98 | 41.1 |
| O=C(O)Cc1ccc(N=Nc2c(O)c(C(=O)O)cc3ccccc23)cc1 |  |  | > 100 |  |  |  | > 100 |  | > 100 |  | > 100 µM |  | > 100 µM |  | > 100 |  |  | > 100 |  | > 100 |
